row,SMILES,melting point [°C]
1,CC(=O)Nc1nc(N)nc(NC2CC2)n1,190 to 195
2,CCOC(=O)C(C(=O)OCC)N(Cc1ccc(OC)cc1OC)C(=O)CCl,83 to 84
3,O=C(Nc1cccc(-c2ccnc3c(C(=O)c4cccs4)cnn23)c1)c1cc(C(F)(F)F)ccc1C(F)(F)F,208 to 210
4,O=S(=O)(O)NCc1ccncc1,227 to 228
5,O=C1NCCN1C(=O)N1CCOCC1,158
6,CSc1nncc(-c2ccco2)n1,88 to 90
7,CN(c1cccc2cc(C(N)=S)[nH]c12)S(=O)(=O)c1cccs1,239 to 240
8,C=Cc1cnc(NC(=O)C(C)C)nc1,110 to 112
9,COC(=O)c1ccc(-c2ccc3cc4c(cc3c2)C(C)(C)CCC4(C)C)cc1O,145 to 146
10,N#CC(=O)c1ccccc1CCl,54.5 to 56.5
11,COC(=O)C(C)(C)S(=O)(=O)N1CCC(c2ccc(-c3nccs3)c(C)c2)CC1,111 to 114
12,CC1(C)CC(=C(c2ccc(O)cc2)c2ccc(C(N)=O)cc2)CC(C)(C)C1,209 to 210
13,CCCCCc1csc2cc(OC)ccc12,43 to 45
14,O=C(CS)N[C@@H](Cc1c[nH]cn1)C(=O)O,198 to 200
15,CCn1c(N)c(-c2nccn2COCC[Si](C)(C)C)c(=O)c2ccc(Cl)nc21,90
16,Cc1sc(Nc2cccc(C#N)n2)nc1-c1cn[nH]c1,331
17,CC(=O)Nc1[nH]c(-c2ccc(O)cc2)nc1C,277 to 279
18,CCn1c(C)c(C(=O)c2ccc(C)c3ccccc23)c2ccccc21,136 to 137

# Now from value to compound:
row,melting point [°C],SMILES
1,196 to 198,CNC(=S)n1nc(Nc2ccccc2)nc1N
2,125 to 127,O=C(O)c1ccc(C#Cc2ccccc2)cc1OCc1ccccc1
3,92 to 94,CCCCOc1cc(CCS(=O)(=O)NC(=O)OCCC)n(Cc2ccc(Cl)cc2Cl)n1
4,222 to 224,COc1ccccc1C1(CC(=O)O)C(=O)Nc2cc(Cl)c(Cl)cc21 (centres undefined)
5,> 220,COc1ccc(-c2ccc3c(c2)c2cc(Cl)cnc2n3S(=O)(=O)c2ccccc2)cc1
6,246 to 249,O=C(O)C1=C(C(F)(F)F)COc2ccc3ccccc3c21
7,108,CCc1nn(C(C)CCCc2ccccc2)c2nc(Cc3ccc(-c4cccc(N)c4)cc3)[nH]c(=O)c12 (centres undefined)
8,125,CCN(CC)CCOc1ccc(Nc2ncc3c(n2)N(C(C)C)C(=O)N(c2c(Cl)cccc2Cl)C3)cc1
9,142 to 144,O=C1NC(=O)C(Cc2cc(=O)n(Cc3ccc(Cl)cc3)c3ccccc23)S1 (centres undefined)
10,245 to 248,CCc1nnc2c(Nc3ccc(Cl)cc3OC)nc3ccccc3n12
11,124 to 127,Cc1ccc(S(=O)(=O)OCC2COc3ccc4nccnc4c3O2)cc1 (centres undefined)
12,197,NC(N)=Nc1nc(N2CCOCC2)nc2ccccc12
13,129 to 131,CCOC(=O)CCc1c[nH]c2cnc(-n3cncn3)cc12
14,151 to 152,CC1=NC(NC(=O)Nc2cccc(C)n2)C(=O)N(CC(=O)N2CC3CCC(CC3)C2)c2c(C)cccc21 (centres undefined)
15,75 to 80,CCCCC(CC)COC(=O)CSc1cc2c(cc1SCC(=O)OCC(CC)CCCC)C(=O)c1cc3ccccc3cc1C2=O (centres undefined)
16,92 to 95,O=C(CCc1ccccc1)N1C(=O)OC[C@@H]1Cc1ccccc1
17,196 to 198,Cc1oc(-c2ccccc2)nc1CCOc1ccc(NC(=O)C(=O)O)cc1
18,158 to 160,CC(C)Oc1cccc(-n2c(NN)nc3ccccc3c2=O)c1
19,216,COC(=O)C1=CC(C(=O)c2ccc(OCc3ccccc3)c(C)c2O)=CN2CCc3c([nH]c4ccccc34)C12C(=O)OC (centres undefined)
20,150 to 151,COc1ccc(-c2cccc(C=CC(=O)Nc3ccc(CN4CCCCC4)cc3)c2)cc1
21,325 to 327,Cc1ccc(N=C(NC#N)NCc2ccc3c(c2)CN(C2CCC(=O)NC2=O)C3=O)cc1Cl (centres undefined)

# From a melting point compilation (Tetko et al.; mined from patent text by program, amines drawn as free bases though some values may be those of a salt)
